Source: PMC8787488, “Two-Metal Ion-Dependent Enzymes as Potential Antiviral Targets in Human Herpesviruses” (mBio, 2022)

How the values were obtained:
ICP8Δ60 = biological target: T1, ICP8Δ60 (Human alphaherpesvirus 1 strain KOS, UniProt P17470); assay: thermal shift, nanoDSF (Tycho NT.[…]); type: binding; details: 20x molar excess of compound to protein, 5 mM MgCl2, pH 7.5, without ssDNA
T1 construct: gene DBP; 60-residue deletion; source not described

UL12 = biological target: T2, UL12 (Human alphaherpesvirus 1 strain 17, UniProt P04294); assay: PicoGreen dsDNA exonuclease assay; type: biochemical; details: 10 nM UL12, 1 nM linearized pUC19 DNA, 1 mM MgCl2, pH 8.2, 37°C
T2 construct: full-length alkaline nuclease, purified from baculovirus-infected Sf9 cells

UL15C = biological target: T3, UL15C (Human alphaherpesvirus 1 strain 17, UniProt P04295); assay: dual-probe fluorescence nuclease assay; type: biochemical
T3 construct: gene TRM3; C-terminal nuclease domain, residues 471 to 736, pET28b(+), from E. coli BL21(DE3); without UL28 and UL33

His-UL30ΔN42 = biological target: T4, His-UL30ΔN42 (Human alphaherpesvirus 1 strain KOS, UniProt P04292); assay: gel-based primer extension polymerase assay; type: biochemical; details: 50 nM enzyme, dNTPs, 10 mM MgCl2, pH 7.6, 37°C
T4 construct: gene UL30; His-tagged, N-terminal 42 residues deleted; gift from Donald Coen; no UL42 mentioned
T4 sequence (P04292 43-1235, stated change not applied): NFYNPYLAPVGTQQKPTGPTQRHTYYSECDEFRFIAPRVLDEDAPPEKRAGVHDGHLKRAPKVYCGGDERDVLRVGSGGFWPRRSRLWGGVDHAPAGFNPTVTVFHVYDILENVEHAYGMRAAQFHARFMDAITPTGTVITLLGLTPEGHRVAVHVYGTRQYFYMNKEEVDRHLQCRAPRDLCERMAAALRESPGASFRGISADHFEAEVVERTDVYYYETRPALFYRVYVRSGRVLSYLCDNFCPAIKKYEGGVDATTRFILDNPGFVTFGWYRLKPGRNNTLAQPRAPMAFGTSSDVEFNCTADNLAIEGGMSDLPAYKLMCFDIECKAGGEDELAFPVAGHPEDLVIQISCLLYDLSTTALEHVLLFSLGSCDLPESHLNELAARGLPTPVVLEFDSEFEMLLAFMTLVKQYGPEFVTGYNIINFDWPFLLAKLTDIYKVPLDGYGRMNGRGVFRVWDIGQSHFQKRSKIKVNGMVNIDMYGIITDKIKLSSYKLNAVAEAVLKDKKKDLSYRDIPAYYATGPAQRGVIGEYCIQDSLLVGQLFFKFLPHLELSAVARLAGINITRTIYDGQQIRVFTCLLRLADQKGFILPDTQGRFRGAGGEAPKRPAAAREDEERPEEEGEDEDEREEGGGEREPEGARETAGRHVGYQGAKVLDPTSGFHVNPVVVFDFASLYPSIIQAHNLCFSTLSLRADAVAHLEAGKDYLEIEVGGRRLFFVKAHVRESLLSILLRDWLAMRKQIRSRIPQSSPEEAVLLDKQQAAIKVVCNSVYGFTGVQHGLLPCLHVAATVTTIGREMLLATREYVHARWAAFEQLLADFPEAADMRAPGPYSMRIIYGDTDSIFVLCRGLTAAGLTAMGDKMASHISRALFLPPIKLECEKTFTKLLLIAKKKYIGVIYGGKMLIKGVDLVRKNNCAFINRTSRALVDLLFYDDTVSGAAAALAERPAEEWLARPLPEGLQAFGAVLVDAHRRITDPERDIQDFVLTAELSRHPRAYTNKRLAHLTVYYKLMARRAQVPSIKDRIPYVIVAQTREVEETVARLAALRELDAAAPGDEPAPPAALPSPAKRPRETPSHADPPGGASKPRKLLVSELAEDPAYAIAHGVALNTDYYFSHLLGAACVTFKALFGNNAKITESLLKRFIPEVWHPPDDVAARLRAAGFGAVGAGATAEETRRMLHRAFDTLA

T2 sequence (P04294 whole entry, looked up): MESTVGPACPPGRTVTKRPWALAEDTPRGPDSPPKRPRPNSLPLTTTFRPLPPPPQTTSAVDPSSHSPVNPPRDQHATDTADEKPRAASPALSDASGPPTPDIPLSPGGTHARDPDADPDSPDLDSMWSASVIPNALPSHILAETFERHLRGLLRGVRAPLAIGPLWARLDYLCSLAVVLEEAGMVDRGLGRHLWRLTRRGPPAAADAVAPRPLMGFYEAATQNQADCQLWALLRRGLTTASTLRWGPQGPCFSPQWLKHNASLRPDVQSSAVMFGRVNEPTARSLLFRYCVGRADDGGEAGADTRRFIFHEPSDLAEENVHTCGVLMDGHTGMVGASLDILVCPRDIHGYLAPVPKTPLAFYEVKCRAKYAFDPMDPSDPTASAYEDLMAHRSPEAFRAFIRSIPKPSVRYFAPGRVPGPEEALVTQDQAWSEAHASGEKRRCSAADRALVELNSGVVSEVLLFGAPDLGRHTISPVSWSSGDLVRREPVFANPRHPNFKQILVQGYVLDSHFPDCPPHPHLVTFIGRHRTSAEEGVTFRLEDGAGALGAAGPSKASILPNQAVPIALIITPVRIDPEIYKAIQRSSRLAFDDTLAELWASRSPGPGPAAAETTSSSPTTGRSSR
T1 sequence (P17470 1-1136, stated change not applied): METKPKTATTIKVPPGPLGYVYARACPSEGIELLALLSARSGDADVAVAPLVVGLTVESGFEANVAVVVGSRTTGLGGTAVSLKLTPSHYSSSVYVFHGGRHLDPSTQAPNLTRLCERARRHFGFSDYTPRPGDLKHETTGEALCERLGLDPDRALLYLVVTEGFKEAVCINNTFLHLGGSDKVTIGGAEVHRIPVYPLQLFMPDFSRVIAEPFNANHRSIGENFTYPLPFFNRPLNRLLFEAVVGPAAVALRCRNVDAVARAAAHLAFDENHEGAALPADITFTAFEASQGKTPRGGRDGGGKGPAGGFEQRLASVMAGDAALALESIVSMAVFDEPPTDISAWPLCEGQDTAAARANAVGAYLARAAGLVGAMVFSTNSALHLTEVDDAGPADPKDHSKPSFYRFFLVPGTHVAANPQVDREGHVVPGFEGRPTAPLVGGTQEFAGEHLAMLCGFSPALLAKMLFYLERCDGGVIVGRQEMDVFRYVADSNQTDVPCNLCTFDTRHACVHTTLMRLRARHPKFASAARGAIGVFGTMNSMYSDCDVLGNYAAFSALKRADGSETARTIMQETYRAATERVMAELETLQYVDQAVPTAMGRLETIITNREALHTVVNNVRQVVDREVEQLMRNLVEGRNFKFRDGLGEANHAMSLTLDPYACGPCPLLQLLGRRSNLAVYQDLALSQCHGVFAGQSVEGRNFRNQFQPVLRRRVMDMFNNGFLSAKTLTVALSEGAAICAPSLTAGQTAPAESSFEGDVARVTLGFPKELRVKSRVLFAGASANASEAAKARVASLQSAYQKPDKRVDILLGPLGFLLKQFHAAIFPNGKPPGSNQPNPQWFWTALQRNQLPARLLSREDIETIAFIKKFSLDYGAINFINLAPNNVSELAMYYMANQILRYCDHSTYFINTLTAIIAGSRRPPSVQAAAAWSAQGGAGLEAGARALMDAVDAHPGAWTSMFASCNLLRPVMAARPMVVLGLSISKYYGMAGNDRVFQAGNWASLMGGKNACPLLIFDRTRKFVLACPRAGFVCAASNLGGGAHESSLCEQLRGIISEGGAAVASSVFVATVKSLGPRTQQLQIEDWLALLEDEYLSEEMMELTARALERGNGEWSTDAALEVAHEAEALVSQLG
T3 sequence (P04295 471-735): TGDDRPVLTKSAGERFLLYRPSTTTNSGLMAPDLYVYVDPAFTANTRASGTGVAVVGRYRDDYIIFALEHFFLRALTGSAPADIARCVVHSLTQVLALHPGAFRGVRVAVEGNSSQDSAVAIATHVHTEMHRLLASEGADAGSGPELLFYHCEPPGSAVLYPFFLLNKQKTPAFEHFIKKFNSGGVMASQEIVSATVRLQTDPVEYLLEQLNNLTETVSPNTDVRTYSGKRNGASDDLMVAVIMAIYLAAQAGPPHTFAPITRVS

SMILES | Ti (ICP8Δ60) | % inhibition at 20 μM (UL12) | inhibition at 12.5 µM (UL15C) [%] | inhibition at 20 μM (His-UL30ΔN42)
O=c1c(O)cccc2cc(O)c(O)c(O)c12 [purpurogallin] | RAL had no appreciable interactions with ICP8, while PPG showed a modest effect | strong inhibition was observed for PPG, AK-157, and AK-166 |  | 
CC(C)c1ccc(CNC(=O)c2ccc3cccnc3c2O)cc1 [AK-166] |  | strong inhibition was observed for PPG, AK-157, and AK-166 |  | 
Cc1nnc(C(=O)NC(C)(C)c2nc(C(=O)NCc3ccc(F)cc3)c(O)c(=O)n2C)o1 [raltegravir] |  |  | ~80 | 
O=C(Nc1ccc(Br)cc1)c1ccc2cccnc2c1O [AK-157] |  | strong inhibition was observed for PPG, AK-157, and AK-166 |  | only AK-157 and the known polymerase inhibitor phosphonoacetic acid (PAA) showed strong inhibition
